Data published in patent US20090076067A1, “PHARMACEUTICAL COMPOSITION COMPRISING AZARHODACYANINE COMPOUND AS ACTIVE INGREDIENT” (priority 2005, published 2009).
Read-outs that look alike come from different tables or passages of the source.

Experiments:
Type in all cases: cell-based
[1] = Rat L6 cell proliferation inhibition test; conditions: read-out: EC50 cytotoxicity L6; for EC50 at 72 h: L6 cells (rat skeletal myoblasts), Table 1, Alamar Blue
[2] = system: Plasmodium Falciparum k1 strain; test: Chloroquine-resistant tropical malaria protozoa proliferation inhibition screening test; conditions: for Selective toxicity: EC50 rat L6 cells / EC50 Chloroquine-resistant malaria protozoa; for EC50: Plasmodium falciparum
Method in brief: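 Infected erythrocytes (0.15% initial infection, 2.5% hematocrit) in RPMI-1640 with 5% human serum were cultured 48 h at 37 °C under 3% O2/4% CO2 with compound, then 24 h with 0.5 μCi [3H]hypoxanthine.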

[3] = system: Trypanosoma cruzi (Tulahuen C2C4 strain); test: American trypanosoma protozoa proliferation inhibition screening test; conditions: for Selective toxicity: EC50 rat L6 cells / EC50 American trypanosoma protozoa; for EC50: Trypanosoma cruzi, read-out: EC50 Trypanosoma cruzi
Protocol: In this experiment, amastigote and trypomastigote of Trypanosoma cruzi (Tulahuen C2C4 strain) infected to rat L6 cells were used. The medium used in the experiment was prepared as follows: to RPMI 1640 medium containing L6 cells, L-glutamine (200 mM) and fetal bovine serum was added to achieve concentration of 1% and 10%, respectively. The culture was conducted under CO2 concentration 5% and temperature 37° C.
Either the compound of the invention or a positive control (benznidazole) was dissolved into DMSO to prepare test solution having predefined concentration. To each well in a 96-well culture plate, medium containing 5×10^3 protozoa was added and precultured for 48 hours. After replacing the medium, either the test solution containing compound of the invention in predefined concentration or DMSO without compound was added. The test solution was duplicated.
The plate was cultured in an incubator for 96 hours, and the proliferation inhibition activity was examined. The activity was determined as follows. To each well, 50 μL CPRG/Nonidet was added, then left for 2 to 6 hours. Then the culture plate was mounted on an absorption microplate reader to determine absorption at 540 nm. The trypanosoma infection rate of the sample containing the test compound and that of the control sample was calculated.
Using the protozoa infection rate thus obtained, the proliferation inhibition rate was calculated according to the following equation to determine 50% proliferation inhibition concentration (EC50).
Proliferation inhibition rate(%)={1−(b−a)/(c−a)}×100
a: initial infection rate b: infection rate of the test compound solution c: infection rate of the control

[4] = system: Rat-derived L6 cells (rat skeletal myoblast cell); test: Rat L6 cell proliferation inhibition test; conditions: Alamar Blue
[5] = chloroquine-resistant K1 strain, 3H-hypoxanthine uptake, read-out: EC50 P. falciparum K1
[6] = Tulahuen C2C4 strain in rat L6 cells, 96 hours, CPRG/Nonidet
[7] = chloroquine-resistant K1 strain, 3H-hypoxanthine uptake

Compound | EC50 at 72 h [1] [µg/mL] | Selective toxicity [2] | EC50 [2, 5] [µg/mL] | Selective toxicity [3] | EC50 [3, 6] [µg/mL] | EC50 cytotoxicity L6 ([4]; Table 1, 72 hours) [µg/mL] | EC50 cytotoxicity L6 ([4]; Table 2, 72 hours) [µg/mL] | EC50 cytotoxicity L6 ([4]; Table 3, 72 hours) [µg/mL] | EC50 cytotoxicity L6 ([4]; Table 4, 72 hours) [µg/mL] | EC50 P. falciparum K1 [2, 7] [µg/mL] | EC50 Trypanosoma cruzi [3, 6] [µg/mL] | EC50 ([1]; Table 1, rat L6 cells, 72 hours, Alamar Blue) [µg/mL] | EC50 ([2]; K1, read-out: EC50 P. falciparum K1) [µg/mL] | EC50 ([3]; TULAHUEN, L6, 96 h) [µg/mL]
CCN1C(=O)/C(=C2\Sc3ccccc3N2C)S/C1=N\c1sc2cc(Cl)ccc2[n+]1C [Compound A-1] | 37.9 | 255 | 0.148 | – | – | – | – | – | – | – | – | – | – | –
CCN1C(=O)/C(=C2\C=Cc3ccccc3N2C)S/C1=N\c1sc2cc(Cl)ccc2[n+]1C [Compound A-2] | 5.5 | 2500 | 0.0022 | 18 | 0.31 | – | – | – | – | – | – | – | – | –
CCN1C(=O)/C(=c2/s/c(=C3/C=CC=CN3C)c(=O)n2CC)S/C1=N\c1sc2cc(Cl)ccc2[n+]1C [Compound B-2] | 27 | 4495 | 0.006 | – | – | – | – | – | – | – | – | – | – | –
CCN1C(=O)/C(=c2/s/c(=C3/SCCN3C)c(=O)n2CC)S/C1=N\c1sc2cc(Cl)ccc2[n+]1C [Compound B-12] | 6.9 | 507 | 0.0136 | 7 | 0.98 | – | – | – | – | – | – | – | – | –
CCN1C(=O)/C(=c2/s/c(=C3/C=CC=CN3C)c(=O)n2CC)S/C1=N\c1sc2cc(OC)ccc2[n+]1C [Compound B-28] | – | – | – | – | – | 5.01 | 5.01 | 5.01 | 5.01 | 0.007 | 0.314 | – | – | –
CCN1C(=O)/C(=c2/s/c(=C3/SCCN3C)c(=O)n2CC)S/C1=N\c1sc2cc(OC)ccc2[n+]1C [Compound B-29] | – | – | – | – | – | 1.98 | 1.98 | 1.98 | 1.98 | 0.006 | 0.091 | – | – | –
CCN1C(=O)/C(=c2/s/c(=C3/C=CC=CN3C)c(=O)n2CC)S/C1=N\c1sc2ccccc2[n+]1C [Compound B-30] | – | – | – | – | – | 7.46 | 7.46 | 7.46 | 7.46 | 0.0119 | 0.74 | – | – | –
CCN1C(=O)/C(=c2/s/c(=C3/SCCN3C)c(=O)n2CC)S/C1=N\c1sc2cc(F)ccc2[n+]1C [Compound B-33] | – | – | – | – | – | 9.83 | 9.83 | 9.83 | 9.83 | 0.0167 | 0.66 | – | – | –
CCn1c(=O)/c(=C2\SCCN2C)s/c1=C1\S/C(=N\c2sc3cc(Cl)ccc3[n+]2C)N(C(C)C)C1=O [Compound B-37] | 1.44 | 160 | 0.009 | 3 | 0.479 | – | – | – | – | – | – | – | – | –
CN1/C(=c2\s/c(=C\c3cccc[n+]3CCC(=O)O)n(CC3CO3)c2=O)Sc2ccccc21 (stereo not shown) [Compound S-3, reference compound] | – | >320 | – | – | – | – | >90 | >90 | >90 | – | – | > 90 | 0.28 | > 30
